Tests used:
[1] = test system: Lis1+/− cerebellar granule nerve cells; test: Migration capability of cerebellar granule nerve cells; type: cell-based, mouse; conditions: 200 μM, 18-24 hours, FIG. 5
Method: Cerebellum tissue fragments of LIS1 gene hetero-deficient and wild-type mice (3-7 days after birth) (10 mice for each group) were crushed by gentle pipetting, and treated with 0.025% trypsin (Gibco, 25200)/0.0013% DNaseI (Sigma, DN-25) at 37° C. for 20 minutes. After centrifugation, a BME culture solution (Gibco, 21010) containing 10% equine blood serum was added for washing, and the reaction was stopped. Thereafter, the reaction liquid was subjected to pipetting by adding a BME culture solution containing 0.0052% DNaseI/10% equine blood serum, and filtered with a cell mesh-strainer (diameter=70 μm; Becton Dickinson). […]
After the incubation, the aggregates were washed with a phosphate buffer (PBS), and immobilized by 4% paraformaldehyde (Wako, 162-16065) (at room temperature, for 15 minutes). […] Thereafter, the aggregates were repeatedly washed well with PBS, and carefully embedded using glycerol (Merck) for fluorescence microscope observation so as to avoid damage.
After careful observation using a confocal laser microscope (TCS-SP5, Leica), the migratory distance (μm) of the nerve cells from the marginal zone of the cerebellum granule cell aggregates was measured for each cell group. […] Further, an average migratory distance (μm) was calculated and expressed as average migratory distance (μm)±standard deviation. […]

[2] = test system: LIS1 heterozygous mice (lissencephaly model mice); test: Behavior analysis: rotor rod test; type: in vivo, mouse; conditions: M2 and M3 groups, 200 μg/g per day oral
Method: To conduct a behavior analysis experiment, wild-type mice and Lis1 (^+/−) heterozygous mice were divided into five groups (C group, M1 group, M2 group, M3 group, and M4 group). The details regarding the mice in each group are described below. CE-2 (CLEA Japan, Inc.) was used as mice feed. The wild-type mice and heterozygous mice used for this experiment were prepared in the same method as described in the above section “Preparation of LIS1 gene hetero-deficient mice (LIS1 heterozygous mice).”
M2 group: LIS1 heterozygous mice prepared as follows. SNJ-1945 was dissolved in dimethyl sulfoxide (Sigma, D-5879) at a concentration of 100 mg/ml, and administered to pregnant mice from Day 9.5 of the embryonic period (E9.5) in an amount of 200 μg per gram of maternal body weight per day. The administration was performed by adding SNJ-1945 to mice feed. […]
By adding SNJ-1945 to the mice feed (CE-2, CLEA Japan, Inc.), SNJ-1945 was continuously administered to the mice so that the administration amount became 200 μg per gram of body weight per day through oral administration. For a behavior analysis experiment, 12 to 16 mice were grouped to be subjected to preliminary breeding in the behavior experiment facility for 1 to 2 weeks; thereafter, the behavior of the mice was analyzed at an age of about 9 to 12 weeks. After the behavior analysis experiment, a gene type was determined for all mice. […]

COCCOCCOC(=O)N[C@@H](CC(C)C)C(=O)N[C@@H](Cc1ccccc1)C(=O)C(=O)NC1CC1 [compound 17, ((1S)-1-((((1S)-1-Benzyl-2,3-dioxo-3-(cyclopropylamino)propyl)amino)carbonyl)-3-methylbutyl)carbamic acid 5-methoxy-3-oxapentyl ester]
migration capability of nerve cells [1]: the recovery of migration capability was observed | motor ability development curve (time on the rod over repeated tests) ([2]; FIG. 10): positioned between M1 group and C group | total time spent on the rod ([2]; FIG. 11): increased to the extent that there was almost no significant difference from C group
